In PubChem BioAssay (NCI):
Values joined by “and” are separate entries in the source; they are usually repeats but may differ in a detail not shown here. Equal values may be shown once.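 All cell lines were grown in 96-well plates and treated with compound for 48 hours. At the GI50, growth is halved. TGI marks complete inhibition of growth.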

Legend:
Experiment in all cases: NCI anticancer screen, dose series, 48 h
SW-620 colon = tested on: SW-620 colon
TK-10 renal = tested on: TK-10 renal
M14 melanoma = tested on: M14 melanoma
NCI-H23 lung = tested on: NCI-H23 lung
NCI/ADR-RES ovarian = tested on: NCI/ADR-RES ovarian
MCF7 breast = tested on: MCF7 breast
KM12 colon = tested on: KM12 colon
HOP-62 NSCLC = tested on: HOP-62 NSCLC
786-0 renal = tested on: 786-0 renal
SF-295 CNS = tested on: SF-295 CNS

| SMILES | GI50 (SW-620 colon) [µM] | TGI (SW-620 colon) | GI50 (TK-10 renal) | TGI (TK-10 renal) | GI50 (M14 melanoma) | TGI (M14 melanoma) | GI50 (NCI-H23 lung) | TGI (NCI-H23 lung) | GI50 (NCI/ADR-RES ovarian) | TGI (NCI/ADR-RES ovarian) [µM] | GI50 (MCF7 breast) | TGI (MCF7 breast) [µM] | GI50 (KM12 colon) | TGI (KM12 colon) | GI50 (HOP-62 NSCLC) | TGI (HOP-62 NSCLC) | GI50 (786-0 renal) | TGI (786-0 renal) | GI50 (SF-295 CNS) | TGI (SF-295 CNS) |
| --- | --- | --- | --- | --- | --- | --- | --- | --- | --- | --- | --- | --- | --- | --- | --- | --- | --- | --- | --- | --- |
| O=C1OCC2=C1C(c1ccc(Cl)c(Cl)c1)c1cc3c(cc1N2CCO)OCCO3 (centres undefined) | 0.16 | > 50 µM | 0.513 µM | 20 µM | 0.264 µM | 5.65 µM | 0.279 µM | 21.7 µM | 0.239 µM | 3 | 0.208 µM | > 50 | 0.172 µM | 7.58 µM | 0.295 µM | 15.1 µM | 0.277 µM | 7.62 µM | 0.151 µM | 2.84 µM |
| O=C1NC(=O)C(N2C(=O)c3ccccc3C2=O)CC1O (centres undefined) | > 100 | > 100 µM | > 100 µM | > 100 µM | > 100 µM | > 100 µM | > 100 µM | > 100 µM | > 100 µM | > 100 | > 100 µM | > 100 | > 100 µM | > 100 µM | > 100 µM | > 100 µM | > 100 µM | > 100 µM | > 100 µM | > 100 µM |
| O=C(/C=C/c1cc2ccccc2[nH]c1=O)/C=C/c1cc2ccccc2[nH]c1=O | 6.34 | 14.8 µM | 11.6 µM | > 60.7 µM | – | – | 9.25 µM | 48.9 µM | > 78 µM | > 100 | 3.84 µM | > 47.7 | 4.32 µM | 8.59 µM | 14.5 µM | > 76.9 µM | – | > 26.1 µM | > 25.3 µM | > 86.2 µM |
| Nc1nc(OCc2ccccc2)c2[nH]cnc2n1 | 98.5 | 400 µM and 289 µM | 56.4 µM and 11.7 µM | 183 µM and 104 µM | 25.6 µM and 26.5 µM | 204 µM and 116 µM | 31.6 µM and 46.9 µM | 326 µM and 229 µM | 97.2 µM and 84.9 µM | 414 | 41.9 µM and 41.8 µM | 355 | 59.6 µM and 62 µM | 400 µM and 307 µM | 42 µM and 23.5 µM | 209 µM and 70.9 µM | 40.1 µM and 27.8 µM | 400 µM and 96.9 µM | 35.2 µM and 24.1 µM | 395 µM and 118 µM |
| COc1cc2c(cc1OCCCn1c(-c3ccccn3)nc3ccccc31)N=C[C@@H]1CCCN1C2=O | 2.47 | 8.33 µM | 3.32 µM | 10.9 µM | 0.92 µM | 2.8 µM | 1.08 µM | 3.77 µM | 2.79 µM | 7.31 | 0.632 µM | 3.47 | 1.9 µM | 4.1 µM | 2.92 µM | 9.57 µM | 2.76 µM | 10.9 µM | 4.05 µM | 49.7 µM |
| N#CC1(C(N)=O)C(c2ccc(Cl)cc2)CC(=O)CC1c1ccc(Cl)cc1 (centres undefined) | 17.2 | 31.1 µM | 17.1 µM | 39.5 µM | 16.2 µM | 29.7 µM | – | – | 39.7 µM | > 100 | 17.4 µM | 31.7 | 19.4 µM | 43.9 µM | – | – | 17.1 µM | 30.8 µM | 15 µM | 33.4 µM |
| O=C1/C(=C/c2ccccc2[N+](=O)[O-])Cc2ccccc21 | 1.27 | 3.22 µM | 3.14 µM | 7.1 µM | 1.97 µM | 3.96 µM | 2.2 µM | 7 µM | 3.35 µM | 40.6 | 1.38 µM | 11.8 | 3.97 µM | 15.7 µM | 3 µM | 17.2 µM | 2.57 µM | 6.9 µM | – | – |
| OCC12C3C4C5C3C1C5C42 (centres undefined) | – | > 100 µM | – | > 100 µM | – | > 100 µM | – | > 100 µM | – | > 100 | – | > 100 | – | – | – | > 100 µM | – | > 100 µM | – | > 100 µM |
| N#Cc1c(N2CCOCC2)nc(=S)[nH]c1-c1ccco1 | 23.5 | > 100 µM | 5.35 µM | 39.7 µM | 12.2 µM | > 100 µM | 12.1 µM | > 100 µM | 15.6 µM | > 100 | 2.12 µM | > 100 | 10.4 µM | > 100 µM | 2.95 µM | 9.16 µM | 6.2 µM | 80.8 µM | – | – |
| CC(=O)OC12C=C(C)C(C(C)C1)C1C(=O)N(CCN3CCOCC3)C(=O)C12 (centres undefined) | > 100 | > 100 µM | > 100 µM | > 100 µM | > 100 µM | > 100 µM | > 100 µM | > 100 µM | > 100 µM | > 100 | – | – | > 100 µM | > 100 µM | > 100 µM | > 100 µM | > 100 µM | > 100 µM | > 100 µM | > 100 µM |
| O=C(/C=C\c1cccc([N+](=O)[O-])c1)/C=C/c1cccc([N+](=O)[O-])c1 | 1.9 | 4.53 µM | 2.97 µM | 8.7 µM | 2.49 µM | 7.33 µM | 4.43 µM | > 100 µM | 20.2 µM | > 100 | 0.655 µM | 6.68 | 1.73 µM | 3.3 µM | – | – | 5.05 µM | 22.1 µM | 2.37 µM | 7.77 µM |
